Source: ChEMBL document CHEMBL4017461, “Investigation of the inhibitory mechanism of apomorphine against MDM2-p53 interaction” (Bioorg Med Chem Lett, 2017)
The source made the active and inactive calls. No cut-off for these calls is given here.

Assays:
[1] = Drug level in 1:1 PBS/CH3CN mixture treated with R-(-)-apomorphine at 10 mM measured after 24 hrs by HPLC method
[2] = Inhibition of biotin-labelled P4 peptide binding to MDM2 Cys(Me)77 mutant (unknown origin) by surface plasmon resonance method; parameters: species or system Homo sapiens
[3] = Inhibition of biotin-labelled P4 peptide binding to MDM2 Ser77 mutant (unknown origin) by surface plasmon resonance method; parameters: species or system Homo sapiens
[4] = target: T1, E3 ubiquitin-protein ligase Mdm2 (Homo sapiens, UniProt Q00987); assay: Binding affinity to MDM2 (25 to 109 residues) (unknown origin) assessed as adduct formation at 10 uM after 10 mins by MALDI-TOF MS analysis
Target sequence in this assay (Q00987 whole entry, looked up, the tested form may be a part): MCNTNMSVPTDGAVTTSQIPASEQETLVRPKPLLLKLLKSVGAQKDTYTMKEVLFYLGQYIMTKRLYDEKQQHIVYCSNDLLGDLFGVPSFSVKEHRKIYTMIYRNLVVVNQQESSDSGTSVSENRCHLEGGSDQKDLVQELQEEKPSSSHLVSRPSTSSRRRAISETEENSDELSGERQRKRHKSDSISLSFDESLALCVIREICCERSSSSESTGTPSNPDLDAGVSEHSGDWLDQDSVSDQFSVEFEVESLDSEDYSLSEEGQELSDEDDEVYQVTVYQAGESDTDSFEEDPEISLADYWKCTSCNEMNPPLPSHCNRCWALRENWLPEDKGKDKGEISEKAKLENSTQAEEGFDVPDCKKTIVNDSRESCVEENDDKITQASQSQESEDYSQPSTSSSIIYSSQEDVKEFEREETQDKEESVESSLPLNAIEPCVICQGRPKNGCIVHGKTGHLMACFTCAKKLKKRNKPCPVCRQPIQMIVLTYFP

Homo sapiens = species: Homo sapiens; assay: Binding affinity to MDM2 Cys(Me)77 mutant (unknown origin) assessed as adduct formation at 10 uM after 10 mins by MALDI-TOF-MS analysis
[5] = target: T1, E3 ubiquitin-protein ligase Mdm2; assay: Inhibition of biotin-labelled P4 peptide binding to MDM2 (25 to 109 residues) (unknown origin) by surface plasmon resonance method
Target sequence in this assay (Q00987 whole entry, the tested form may be a part): as the sequence (Q00987 whole entry, looked up, the tested form may be a part) above

[6] = target: T1, E3 ubiquitin-protein ligase Mdm2; assay: Inhibition of biotin-labelled p53 binding to MDM2 (25 to 109 residues) (unknown origin) by surface plasmon resonance method
[7] = target: T1, E3 ubiquitin-protein ligase Mdm2; assay: Inhibition of biotin-labelled L-p53 binding to L-MDM2 (25 to 109 residues) (unknown origin) by FAM labeled P4 peptide based fluorescence polarization assay
Target sequence in this assay (Q00987 whole entry, the tested form may be a part): as the sequence (Q00987 whole entry, looked up, the tested form may be a part) above

[8] = target: T1, E3 ubiquitin-protein ligase Mdm2; assay: Inhibition of biotin-labelled D-p53 binding to D-MDM2 (25 to 109 residues) (unknown origin) by FAM labeled P4 peptide based fluorescence polarization assay
Target sequence in this assay (Q00987 whole entry, looked up, the tested form may be a part): as above

[9] = Inhibition of biotin-labelled p53 binding to MDM2 Ser77 mutant (unknown origin) by surface plasmon resonance method; parameters: species or system Homo sapiens

With `CN1CCc2cccc3c4c(cc1c23)C=CC(=O)C4=O` the Drug metabolism [1] was “Metabolite detected”, the IC50 [2] was over 30 µM and the IC50 [3] was over 30 µM. For the same compound, the Activity [4] was “inactive”, the Activity (Homo sapiens) was “Active” and the IC50 [5] was 1.7 µM. The inhibition [6] was “Active”.

Compound `CN1CCc2cccc3c2[C@@H]1Cc1ccc(O)c(O)c1-3` [(S)APOMORPHINE] has an IC50 [7] of 0.175 µM.

With `Oc1ccccc1O` [CATECHOL] the IC50 [6] was over 100 µM.

In the case of `CN1CCc2cccc3c2[C@H]1Cc1ccc(O)c(O)c1-3` [APOMORPHINE], the IC50 [2] is reported as over 30 µM, the IC50 [3] is reported as over 30 µM and the IC50 [8] is reported as 0.195 µM. The IC50 [7] was 0.215 µM, the IC50 [5] was over 30 µM and the inhibition [6] was “inactive”.

Work on `O=C1C=CC(=O)C=C1` [BENZOQUINONE] yielded an IC50 [9] of over 100 µM and an IC50 [6] of 13.9 µM.
